Measurements published in US20240400547A1, “2,6-PIPERIDINEDIONE COMPOUND AND APPLICATION THEREOF” (MEDSHINE DISCOVERY INC., priority 2021, published 2024).
Counter-ions that a name gives are not always drawn.

Columns and labels:
[1] = system: human lymphoma SU-DHL-2 cells; test: In vivo efficacy in CB17 SCID mouse model with subcutaneous xenograft tumors of human lymphoma SU-DHL-2 cells; parameters: species or system CB17 SCID mice; settings: for Tumor volume (Day 0): Day 0 (grouping, baseline); for Tumor volume (Day 0) / Tumor volume (Day 21): average, SEM in next grid line
Experimental: The study evaluates the antitumor effect of the test compounds using a CB17 SCID mouse model with subcutaneous xenograft tumors of SU-DHL-2 human lymphoma cells.
• 1. Experimental animals: CB17 SCID mice, female, 6 to 8 weeks old, weighing 18 to 22 g. Beijing Vital River Laboratory Animal Technology Co., Ltd. • 2. Cell line: human lymphoma SU-DHL-2 cells (Cat. No ATCC-CRL-2956).
Cell culture: Human lymphoma SU-DHL-2 cells (ATCC-CRL-2956) were cultured in suspension in vitro. The culture conditions were RPMI 1640 medium with […] fetal bovine serum, 100 U/mL penicillin and 100 μg/mL streptomycin, and cultured in a 37° C., […] incubator. Routine passaging was performed twice a week. When the cell saturation reached […] and the quantity met the requirements, the cells were collected, counted, and seeded.
Tumor cell seeding and grouping: 0.2 mL (10×10^6 cells) of SU-DHL-2 cells, in a PBS:Matrigel=1:1 mixture, were subcutaneously inoculated into the right dorsal flank of each mouse. When the average tumor volume reached approximately 139 mm^3, the animals were divided into groups for drug administration. The day of grouping was recorded as Day 0, and dosing began according to the body weight of the animals.
The pharmacological experiment consisted of a dosing cycle of seven days, with medication administered once daily at a 24-hour interval. The test compounds were given intragastrically, with a total of three dosing cycles. During the experiment, the body weight and tumor size of the animals were measured twice a week, and clinical symptoms were observed and recorded daily.
The dosing for the test compounds were 10 mg/kg, 30 mg/kg, and 100 mg/kg, with a solvent composition of 10% DMSO/10% Solutol/80% water. The formula for calculating tumor volume (TV) was: 1/2×a×b^2, where a and b were the measured length and width of the tumor, respectively. The formula for calculating the Tumor Growth Inhibition (TGI) rate was: TGI (%)=[(1−(average tumor volume at the end of administration in a treatment group average tumor volume at the beginning of administration in this treatment group))/(average tumor volume at the end of treatment in the vehicle control group−average tumor volume at the beginning of treatment in the vehicle control group)]×100%. Relative Tumor Proliferation rate T/C (%): the calculation formula was as follows: T/C %=TRTV/CRTV×100% (TRTV: average RTV of the treatment group; CRTV: average RTV of the negative control group). According to the results of tumor measurement, the relative tumor volume (RTV) was calculated, and the calculation formula was RTV=Vt/V0, where V0 was the tumor volume measured at the time of group administration (i.e. Day 0), VT was the tumor volume at a certain measurement, and TRTV and CRTV were taken from the same day's data.
Statistical analysis is based on the data of RTV at the end of the experiment and analyzed by SPSS software. For comparisons between two groups, a T test was used. For comparisons among three or more groups, one-way ANOVA was utilized. If the variance was homogenous (no significant difference in F value), Tukey's method was applied for analysis. If the variance was heterogeneous (significant difference in F value), the Games-Howell method was used for testing. A p-value of <0.05 was considered statistically significant.

IKZF3 = target: T1, IKZF3 (Homo sapiens, UniProt Q96SW2+Q9UKT9); test: In Cell Western of IKZF3 protein expression level in MM.1S cells; assay type: cell-based; settings: IKZF3, MM.1S cells, 24 hours
T1 construct: host or cells: MM.1S cells
Experimental: Experimental objective: The experiment aims to assess the degradation effect of the test compounds on IKZF1 and 1KZF3 proteins in MM.1S cells by evaluating the impact of the test compounds on the expression levels of IKZF1 and IZKZF3 proteins in MM.1S cells.
• Cell lines: MMN.1 S cell (sourced from ATCC; Cat. No CRL-2974) • Negative control: 0.100 DMSO.
• 1) Log phase MM.1 S cells were plated in a 96-well plate at 1.2×10^5 cells per well and cultured overnight; • 2) The next day, compounds were added with a starting concentration of 300 nM, diluted threefold across three replicate wells for 10 concentration gradients (including DMSO), and the cells were incubated for 24 hours in an incubator; • 3) The cells were centrifuged, and the supernatant was carefully removed. 150 μL of 4% paraformaldehyde fixative was added along the wall of the wells, avoiding contact with the bottom cells, and the cells were incubated at room temperature for 20 minutes; • 4) Lysis buffer was prepared by mixing 0.5 mL of 10% Triton X-100 with 49.5 mL of PBS until homogenous; • 5) 200 μL of lysis buffer was added along the well walls, again avoiding the bottom cells, and incubated on a shaker at room temperature for 5 minutes; • 6) The wells were washed four times; • 7) 150 μL of Licor […] […]

[2] = 10 mg/kg intragastric once daily
[3] = 30 mg/kg intragastric once daily
[4] = 100 mg/kg intragastric once daily

T1 sequence (Q9UKT9 whole entry): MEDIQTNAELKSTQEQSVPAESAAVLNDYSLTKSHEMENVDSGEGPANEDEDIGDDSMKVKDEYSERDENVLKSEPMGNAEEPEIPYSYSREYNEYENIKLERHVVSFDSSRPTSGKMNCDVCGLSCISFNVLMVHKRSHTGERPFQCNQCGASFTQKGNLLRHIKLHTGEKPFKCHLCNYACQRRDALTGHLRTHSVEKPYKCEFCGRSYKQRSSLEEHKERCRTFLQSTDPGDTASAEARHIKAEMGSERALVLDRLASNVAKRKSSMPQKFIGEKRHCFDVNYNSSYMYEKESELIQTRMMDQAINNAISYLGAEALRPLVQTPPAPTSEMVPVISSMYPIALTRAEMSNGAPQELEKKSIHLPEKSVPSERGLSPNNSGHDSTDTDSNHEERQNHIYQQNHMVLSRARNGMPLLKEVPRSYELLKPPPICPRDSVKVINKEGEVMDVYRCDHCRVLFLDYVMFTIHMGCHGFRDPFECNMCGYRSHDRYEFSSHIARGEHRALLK
T1 sequence (Q96SW2 whole entry): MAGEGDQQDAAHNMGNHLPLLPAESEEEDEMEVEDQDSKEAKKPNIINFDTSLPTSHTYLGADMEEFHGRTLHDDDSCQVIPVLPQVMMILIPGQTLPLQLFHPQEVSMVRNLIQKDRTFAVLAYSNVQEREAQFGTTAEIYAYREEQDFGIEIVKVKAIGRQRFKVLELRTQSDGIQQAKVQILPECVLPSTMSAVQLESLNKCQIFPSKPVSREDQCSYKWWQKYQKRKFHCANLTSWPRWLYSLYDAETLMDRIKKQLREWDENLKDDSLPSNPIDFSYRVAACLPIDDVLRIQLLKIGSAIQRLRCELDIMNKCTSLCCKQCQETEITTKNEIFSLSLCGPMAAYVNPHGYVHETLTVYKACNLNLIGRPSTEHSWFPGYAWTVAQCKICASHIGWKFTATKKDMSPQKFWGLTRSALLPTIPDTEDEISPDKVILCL
T1 sequence (Q16531 whole entry partner): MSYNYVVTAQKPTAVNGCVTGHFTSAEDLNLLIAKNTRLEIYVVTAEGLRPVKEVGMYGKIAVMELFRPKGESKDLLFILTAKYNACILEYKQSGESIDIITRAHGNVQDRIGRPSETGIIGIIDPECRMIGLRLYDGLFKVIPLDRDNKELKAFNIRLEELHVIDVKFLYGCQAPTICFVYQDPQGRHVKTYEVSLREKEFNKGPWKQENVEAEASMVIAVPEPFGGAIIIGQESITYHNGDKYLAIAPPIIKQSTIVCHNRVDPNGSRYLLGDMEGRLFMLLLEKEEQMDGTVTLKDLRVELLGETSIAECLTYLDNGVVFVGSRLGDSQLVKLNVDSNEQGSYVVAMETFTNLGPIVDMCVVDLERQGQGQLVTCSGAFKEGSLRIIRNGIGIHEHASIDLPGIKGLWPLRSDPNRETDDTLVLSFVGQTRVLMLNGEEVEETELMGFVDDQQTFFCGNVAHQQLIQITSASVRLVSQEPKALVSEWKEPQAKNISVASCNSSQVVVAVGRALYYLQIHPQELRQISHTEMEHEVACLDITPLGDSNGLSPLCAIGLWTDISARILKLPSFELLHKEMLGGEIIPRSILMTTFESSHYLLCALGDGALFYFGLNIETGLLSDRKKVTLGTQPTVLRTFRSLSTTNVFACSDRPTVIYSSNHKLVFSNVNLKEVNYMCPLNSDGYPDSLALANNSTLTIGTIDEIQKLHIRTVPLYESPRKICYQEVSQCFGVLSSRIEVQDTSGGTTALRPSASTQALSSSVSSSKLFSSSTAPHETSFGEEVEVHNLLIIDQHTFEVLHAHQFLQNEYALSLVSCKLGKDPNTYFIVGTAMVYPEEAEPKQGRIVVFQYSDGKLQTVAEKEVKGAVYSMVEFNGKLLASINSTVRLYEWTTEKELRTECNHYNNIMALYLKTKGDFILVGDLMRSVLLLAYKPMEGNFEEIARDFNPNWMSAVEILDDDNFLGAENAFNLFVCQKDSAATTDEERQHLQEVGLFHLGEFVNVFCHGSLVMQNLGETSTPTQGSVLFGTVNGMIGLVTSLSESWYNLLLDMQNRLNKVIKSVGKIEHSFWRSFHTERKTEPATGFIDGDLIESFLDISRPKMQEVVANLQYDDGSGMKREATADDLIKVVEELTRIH

SMILES	Tumor volume (Day 0) [1, 2] [mm^3]	T/C (%) (Day 21) [1, 2]	TGI (%) (Day 21) [1, 2]	Tumor volume (Day 21) [1, 2] [mm^3]	Tumor volume (Day 0) [1, 3] [mm^3]	T/C (%) (Day 21) [1, 3]	TGI (%) (Day 21) [1, 3]	Tumor volume (Day 21) [1, 3] [mm^3]	Tumor volume (Day 0) [1, 4] [mm^3]	T/C (%) (Day 21) [1, 4]	TGI (%) (Day 21) [1, 4]	Tumor volume (Day 21) [1, 4] [mm^3]	DC50 (IKZF3) [nM]	Dmax (IKZF3; MM1.S, read-out: Maximum degradation rate Dmax) [%]
O=C1CCC(c2noc3ccc4c(NC(=O)CN5CCN(C[C@H]6CC[C@H](n7cc(NC(=O)c8coc(-c9ccnc(NCC%10CC%10)c9)n8)c(C(F)F)n7)CC6)CC5)cccc4c23)C(=O)N1 (some centres unmarked) [Hydrochloride of WX014]	139	42.33	62.13	800	139	42.26	61.41	813	139	33.23	72.07	626	–	–
O=C1CCC(c2noc3ccc4c(NC(=O)C(F)(F)C5CCN(CC6CCC(n7cc(NC(=O)c8coc(-c9ccnc(NCC%10CC%10)c9)n8)c(C(F)F)n7)CC6)CC5)cccc4c23)C(=O)N1 (centres unmarked) [Hydrochloride of WX018]	–	–	–	–	–	–	–	–	–	–	–	–	8.34	96.5
